# Columns and labels:
# [1] = 4-week toxicity study in Sprague-Dawley rats; type: in vivo
# Description: On Day 29, surviving TS animals (all animals in study) were euthanized and subjected to a full gross necropsy, which included a macroscopic examination of the external surface of the body, all orifices, cranial cavity, external surface of the brain, the thoracic, abdominal and pelvic cavities and their viscera, cervical areas, carcass and genitalia. Organs were weighed as soon as possible from all main study animals at the scheduled necropsies. Tissues from Groups 1 and 5 animals at the terminal sacrifice, from animals found dead or moribund-sacrificed, and gross lesions from all animals, were embedded in paraffin, sectioned, stained with hematoxylin and eosin and examined microscopically by a board certified veterinary pathologist.
# serum uric acid (sUA) = experiment: Phase 1 single dose study, pharmacodynamics (serum uric acid) in healthy adult males; type: in vivo, human; details: fasted
# Method: The dose groups included Cohort 1 (15 mg or placebo, fasted, oral suspension), Cohort 2 (50 mg or placebo, fasted, suspension), Cohort 3 (100 mg or placebo, fasted, oral suspension), Cohort 4 (150 mg or placebo, fasted, oral suspension), Cohort 6 (50 mg or placebo, fed, oral suspension), and Cohort 7 (50 mg or placebo, fasted, oral capsule). […] An additional 8 subjects received placebo.
# Decrease in sUA appeared to reach a plateau at 100 mg or lower.
# [2] = rats, oral gavage 2, 5, 15 and 50 mg/kg/day, 28 days
# [3] = 50 mg single oral, Capsule, 6 h
# [4] = 50 mg single oral, Capsule, 12 h
# [5] = 50 mg single oral, Capsule, 24 h
# [6] = 50 mg single oral, Capsule, 30 h
# [7] = 50 mg single oral, Capsule, 36 h
# [8] = 50 mg single oral, Capsule, 48 h
# [9] = 50 mg single oral, Capsule, 54 h
# [10] = 50 mg single oral, Capsule, 60 h
# [11] = 50 mg single oral, Capsule, 72 h
# [12] = 50 mg single oral, Capsule, 96 h
# [13] = 50 mg single oral, Capsule, 120 h
smiles,measurement,setting,value
"[2H]c1c([2H])c([2H])c2c(C(=O)c3cc(Br)c(O)c(Br)c3)c(C(C)O)oc2c1[2H] (racemic) [Compound 1, (3,5-dibromo-4-hydroxyphenyl)(2-(1-hydroxyethyl)benzofuran-3-yl-4,5,6,7-d4)methanone]",NOAEL at 28 days,"[1]; Sprague-Dawley, rat, in vivo, po",50 mg/kg
same,"NOAEL, human equivalent","[1]; rat, in vivo",500 mg
same,"dose with kidney weight increase, female","[1]; rats, 28 days oral",50 mg/kg/day
same,"dose with liver weight increase, female","[1]; rats, 28 days oral",≥ 15 mg/kg/day
same,"dose with liver weight increase, male","[1]; rats, 28 days oral",50 mg/kg/day
same,findings at high or mid-high dose after 4 week recovery period,"[1]; rats, 28 days oral then 4 week recovery",resolved
same,clinical signs,[1]; [2],No abnormal clinical signs
same,"effect on food consumption, body weight",[1]; [2],no effect
same,mortality,[1]; [2],No mortality
same,"Percent change in serum uric acid, mean, time-matched (Day-1) baseline","serum uric acid (sUA); 15 mg single oral, 6 h",2.7%
same,"Serum uric acid, mean","serum uric acid (sUA); 15 mg single oral, 6 h",5.4 mg/dL
same,"Percent change in serum uric acid, mean, time-matched (Day-1) baseline","serum uric acid (sUA); 15 mg single oral, 12 h",8.7%
same,"Serum uric acid, mean","serum uric acid (sUA); 15 mg single oral, 12 h",5.1 mg/dL
same,"Serum uric acid, mean","serum uric acid (sUA); 15 mg single oral, 24 h",5.1 mg/dL
same,"Percent change in serum uric acid, mean, time-matched (Day-1) baseline","serum uric acid (sUA); 15 mg single oral, 30 h",0.7%
same,"Serum uric acid, mean","serum uric acid (sUA); 15 mg single oral, 30 h",5.2 mg/dL
same,"Percent change in serum uric acid, mean, time-matched (Day-1) baseline","serum uric acid (sUA); 15 mg single oral, 36 h",−1.4%
same,"Serum uric acid, mean","serum uric acid (sUA); 15 mg single oral, 36 h",4.6 mg/dL
same,"Percent change in serum uric acid, mean, time-matched (Day-1) baseline","serum uric acid (sUA); 15 mg single oral, 48 h",−4.4%
same,"Serum uric acid, mean","serum uric acid (sUA); 15 mg single oral, 48 h",5.2 mg/dL
same,"Percent change in serum uric acid, mean, time-matched (Day-1) baseline","serum uric acid (sUA); 15 mg single oral, 54 h",−1.5%
same,"Serum uric acid, mean","serum uric acid (sUA); 15 mg single oral, 54 h",5.1 mg/dL
same,"Percent change in serum uric acid, mean, time-matched (Day-1) baseline","serum uric acid (sUA); 15 mg single oral, 60 h",10.0%
same,"Serum uric acid, mean","serum uric acid (sUA); 15 mg single oral, 60 h",5.2 mg/dL
same,"Percent change in serum uric acid, mean, time-matched (Day-1) baseline","serum uric acid (sUA); 15 mg single oral, 72 h",3.6%
same,"Serum uric acid, mean","serum uric acid (sUA); 15 mg single oral, 72 h",5.6 mg/dL
same,"Percent change in serum uric acid, mean, time-matched (Day-1) baseline","serum uric acid (sUA); 15 mg single oral, 96 h",7.8%
same,"Serum uric acid, mean","serum uric acid (sUA); 15 mg single oral, 96 h",5.8 mg/dL
same,"Percent change in serum uric acid, mean, time-matched (Day-1) baseline","serum uric acid (sUA); 15 mg single oral, 120 h",13.0%
same,"Serum uric acid, mean","serum uric acid (sUA); 15 mg single oral, 120 h",6.1 mg/dL
same,"Percent change in serum uric acid, mean, time-matched (Day-1) baseline",serum uric acid (sUA); [3],−26.9%
same,"Serum uric acid, mean",serum uric acid (sUA); [3],4.0 mg/dL
same,"Percent change in serum uric acid, mean, time-matched (Day-1) baseline",serum uric acid (sUA); [4],−37.5%
same,"Serum uric acid, mean",serum uric acid (sUA); [4],3.4 mg/dL
same,"Percent change in serum uric acid, mean, time-matched (Day-1) baseline",serum uric acid (sUA); [5],−38.3%
same,"Serum uric acid, mean",serum uric acid (sUA); [5],3.7 mg/dL
same,"Percent change in serum uric acid, mean, time-matched (Day-1) baseline",serum uric acid (sUA); [6],−36.9%
same,"Serum uric acid, mean",serum uric acid (sUA); [6],3.4 mg/dL
same,"Percent change in serum uric acid, mean, time-matched (Day-1) baseline",serum uric acid (sUA); [7],−34.1%
same,"Serum uric acid, mean",serum uric acid (sUA); [7],3.6 mg/dL
same,"Percent change in serum uric acid, mean, time-matched (Day-1) baseline",serum uric acid (sUA); [8],−32.4%
same,"Serum uric acid, mean",serum uric acid (sUA); [8],4.1 mg/dL
same,"Percent change in serum uric acid, mean, time-matched (Day-1) baseline",serum uric acid (sUA); [9],−28.1%
same,"Serum uric acid, mean",serum uric acid (sUA); [9],3.9 mg/dL
same,"Percent change in serum uric acid, mean, time-matched (Day-1) baseline",serum uric acid (sUA); [10],−21.0%
same,"Serum uric acid, mean",serum uric acid (sUA); [10],4.3 mg/dL
same,"Percent change in serum uric acid, mean, time-matched (Day-1) baseline",serum uric acid (sUA); [11],−17.8%
same,"Serum uric acid, mean",serum uric acid (sUA); [11],4.9 mg/dL
same,"Percent change in serum uric acid, mean, time-matched (Day-1) baseline",serum uric acid (sUA); [12],−11.2%
same,"Serum uric acid, mean",serum uric acid (sUA); [12],5.3 mg/dL
same,"Percent change in serum uric acid, mean, time-matched (Day-1) baseline",serum uric acid (sUA); [13],−12.5%
same,"Serum uric acid, mean",serum uric acid (sUA); [13],5.2 mg/dL
same,"Percent change in serum uric acid, mean, time-matched (Day-1) baseline","serum uric acid (sUA); 50 mg single oral, 6 h",−23.8%
same,"Serum uric acid, mean","serum uric acid (sUA); 50 mg single oral, 6 h",4.6 mg/dL
same,"Percent change in serum uric acid, mean, time-matched (Day-1) baseline","serum uric acid (sUA); 50 mg single oral, 12 h",−33.6%
same,"Serum uric acid, mean","serum uric acid (sUA); 50 mg single oral, 12 h",3.9 mg/dL
same,"Percent change in serum uric acid, mean, time-matched (Day-1) baseline","serum uric acid (sUA); 50 mg single oral, 24 h",−42.4%
same,"Serum uric acid, mean","serum uric acid (sUA); 50 mg single oral, 24 h",3.9 mg/dL
same,"Percent change in serum uric acid, mean, time-matched (Day-1) baseline","serum uric acid (sUA); 50 mg single oral, 30 h",−33.5%
same,"Serum uric acid, mean","serum uric acid (sUA); 50 mg single oral, 30 h",4.1 mg/dL
same,"Percent change in serum uric acid, mean, time-matched (Day-1) baseline","serum uric acid (sUA); 50 mg single oral, 36 h",−33.9%
same,"Serum uric acid, mean","serum uric acid (sUA); 50 mg single oral, 36 h",3.9 mg/dL
same,"Percent change in serum uric acid, mean, time-matched (Day-1) baseline","serum uric acid (sUA); 50 mg single oral, 48 h",−35.8%
same,"Serum uric acid, mean","serum uric acid (sUA); 50 mg single oral, 48 h",4.3 mg/dL
same,"Percent change in serum uric acid, mean, time-matched (Day-1) baseline","serum uric acid (sUA); 50 mg single oral, 54 h",−32.1%
same,"Serum uric acid, mean","serum uric acid (sUA); 50 mg single oral, 54 h",4.2 mg/dL
same,"Percent change in serum uric acid, mean, time-matched (Day-1) baseline","serum uric acid (sUA); 50 mg single oral, 60 h",−24.2%
same,"Serum uric acid, mean","serum uric acid (sUA); 50 mg single oral, 60 h",4.5 mg/dL
same,"Percent change in serum uric acid, mean, time-matched (Day-1) baseline","serum uric acid (sUA); 50 mg single oral, 72 h",−26.1%
same,"Serum uric acid, mean","serum uric acid (sUA); 50 mg single oral, 72 h",5.0 mg/dL
same,"Percent change in serum uric acid, mean, time-matched (Day-1) baseline","serum uric acid (sUA); 50 mg single oral, 96 h",−9.6%
same,"Serum uric acid, mean","serum uric acid (sUA); 50 mg single oral, 96 h",6.0 mg/dL
same,"Percent change in serum uric acid, mean, time-matched (Day-1) baseline","serum uric acid (sUA); 50 mg single oral, 120 h",−4.6%
